Data as given in patent US20060128614A1, “Antimicrobial peptides with reduced hemolysis and methods of their use” (priority 2002, published 2006).
≈ marks a conversion by molar mass, not a printed value. Read-outs that look alike come from different tables or passages of the source. Non-standard residues stand in square brackets, D forms with d. Residues, ends and D or L forms follow the SMILES beside them. 2Nal = N[C@@H](Cc1ccc2ccccc2c1)C(=O)O

Key:
B. cereus = format: cell-based, Bacillus cereus
Procedure: (§1) The in vitro antimicrobial activities of antimicrobial agents were tested using standard NCCLS bacterial and fungi inhibition assays or minimum inhibition concentration (MIC) tests. The MIC value is the lowest concentration of peptide at which the visible growth of test organisms was inhibited and reduced. Overnight cultures of the test organisms were diluted to produce an inoculum containing approximately […] in Meuller-Hinton broth (MHB). From the peptide stock solution, serial dilutions of the peptides into […] were prepared and all wells of a 96-well microtiter plate were subsequently inoculated with the diluted culture of the test organisms. After 18 hours of incubation at 37°, the results were assayed for turbidity as an indicator of cell growth. MIC values for the peptides are shown in Table 3 and Table 4 and FIGS. 1(A), 1(B), 1 (C) and 1 (D) show survival rates for Pac-625 and Pac-626.

[1] = tested on: outer membrane of E. coli; assay: NPN uptake assay, outer membrane permeabilization; format: cell-based; conditions: intact cells of E. coli
Procedure: The outer membrane permeabilization activity of the peptide variants was determined by the 1-N-phenylnaphthylamine (NPN) uptake assay, using intact cells of E. coli. […] Since NPN is hydrophobic, it provides a direct measurement of the degree of outer membrane permeability. E. coli take up little or no NPN in a general condition. In the presence of permeabilizer compounds (EDTA, polymyxin B, Neomycin, or antimicrobial peptides), NPN partitioned into the bacterial outer membrane results in an increase in fluorescence. Fluorescence will vary with the concentration of peptide.
One ml of overnight culture was used to inoculate 50 ml of media and incubated at 37° C. with shaking. The culture was permitted to grow to an OD600 of 0.4 to 0.6, cells were spun down at 3500 rpm for 10 minutes, washed, and re-suspended in buffer to an OD600 of 0.5. The OD600 was recorded, 1 ml of cells (OD600=0.5) was added to the cuvette and measured after 2-5 seconds. 20 μl NPN 0.5 mM, shaken to mix, was added and measured after 2-5 seconds. 10 ul antibiotic 100× desired final concentration was added, shaken to mix, and measured until the maximal value was reached within 1 to 5 minutes. The concentration of peptide leading to 50% of the maximum increase in NPN uptake was recorded as the P50.

S. aureus = format: cell-based, Staphylococcus aureus
Procedure: as §1

E. coli = format: cell-based, Escherichia coli
Procedure: as §1

Candida albicans = format: cell-based
Procedure: as §1

[2] = tested on: human red blood cells (RBC); format: cell-based
Procedure: Pac-401, Pac-403, Pac-625 and Pac-626 were tested for hemolysis against human red blood cells (RBC). The RBCs with EDTA were rinsed 3 times with PBS (800 g, 10 min) and re-suspended in PBS. The RBCs were diluted into 10% with phosphate-buffered saline and placed […] into each eppendorf. The peptides dissolved in PBS were then added to 50 μl of 10% solution of RBCs and incubated for an hour at 37° C. (final RBC concentration, 5% v/v). The samples were centrifuged at 800 g for 10 min […]. Various concentrations of peptides were incubated with pretreated RBC and the percentage of hemolysis determined.

B. subtilis = format: cell-based, Bacillus subtilis
Procedure: as §1

S. epidermidis = format: cell-based, Staphylococcus epidermidis
Procedure: as §1

[3] = qualitative statement
[4] = tested on: Gram-positive and Gram-negative bacteria; assay: Antimicrobial activity of Trp template peptides; format: cell-based; conditions: qualitative statement

| Compound | MIC B. cereus (B. cereus) [µg/mL] | P50 (concentration of peptide leading to 50% of the maximum increase in NPN uptake) [1] [µg/mL] | MIC S. aureus (S. aureus) [µg/mL] | MIC against S. aureus (S. aureus) [µg/mL] | MIC against S. aureus (S. aureus; 18 h) [µg/mL] | MIC against E. coli (E. coli) [µg/mL] | MIC against E. coli (E. coli; 18 h) [µg/mL] | MIC Candida albicans (Candida albicans) [µg/mL] | % lysis @ 5 μg/ml [2] [%] | % lysis @ 50 μg/ml [2] [%] | % lysis @ 500 μg/ml [2] [%] | MIC B. subtilis (B. subtilis) [µg/mL] | MIC S. epidermidis (S. epidermidis) [µg/mL] | hemolytic activity [3] | antimicrobial activity [4] |
| --- | --- | --- | --- | --- | --- | --- | --- | --- | --- | --- | --- | --- | --- | --- | --- |
| CC[C@H](C)[C@H](NC(C)=O)C(=O)N[C@@H](Cc1ccc2ccccc2c1)C(=O)N[C@@H](CCCNC(=N)N)C(=O)N[C@H](C(=O)N[C@@H](Cc1ccc2ccccc2c1)C(=O)N[C@@H](CCCNC(=N)N)C(=O)N[C@@H](CCCNC(=N)N)C(=O)N[C@@H](Cc1ccc2ccccc2c1)C(=O)N[C@@H](CCCCN)C(N)=O)C(C)C [Pac-626 L, I (2-Nal) R V (2-Nal) R R (2-Nal) K] (Ac-I[2Nal]RV[2Nal]RR[2Nal]K-NH2) | 4 (≈ 2.74 µM) | 2 | 4 (≈ 2.74 µM) | 4 (≈ 2.74 µM) | 4 (≈ 2.74 µM) | 4 (≈ 2.74 µM) | 4 (≈ 2.74 µM) | 32 (≈ 21.9 µM) | 0.81 | 7.2 | 14 | – | – | – | – |
| CC[C@H](C)[C@H](NC(=O)[C@H](Cc1ccc2ccccc2c1)NC(=O)[C@H](CCCNC(=N)N)NC(=O)[C@@H](NC(=O)[C@H](Cc1ccc2ccccc2c1)NC(=O)[C@H](CCCNC(=N)N)NC(=O)[C@H](CCCNC(=N)N)NC(=O)[C@H](Cc1ccc2ccccc2c1)NC(=O)[C@H](CCCCN)NC(C)=O)C(C)C)C(N)=O [Pac-625 L, K (2-Nal) R R (2-Nal) V R (2-Nal) I] (Ac-K[2Nal]RR[2Nal]VR[2Nal]I-NH2) | – | 2 | – | 4 (≈ 2.74 µM) | 4 (≈ 2.74 µM) | 2 (≈ 1.37 µM) | 2 (≈ 1.37 µM) | 16 (≈ 11 µM) | 0.82 | 7.3 | 15 | 4 (≈ 2.74 µM) | 2 (≈ 1.37 µM) | – | – |
| CC[C@H](C)[C@H](NC(C)=O)C(=O)N[C@@H](Cc1c[nH]c2ccccc12)C(=O)N[C@@H](CCCNC(=N)N)C(=O)N[C@H](C(=O)N[C@@H](Cc1c[nH]c2ccccc12)C(=O)N[C@@H](CCCNC(=N)N)C(=O)N[C@@H](CCCNC(=N)N)C(=O)N[C@@H](Cc1c[nH]c2ccccc12)C(=O)N[C@@H](CCCCN)C(N)=O)C(C)C [Pac-525rev, Ac-IWRVWRRWK-NH2] (Ac-IWRVWRRWK-NH2) | – | – | – | – | – | – | – | – | – | – | – | – | – | very similar to that of Pac-525 | – |
| CC[C@H](C)[C@H](NC(=O)[C@H](Cc1c[nH]c2ccccc12)NC(=O)[C@H](CCCNC(=N)N)NC(=O)[C@@H](NC(=O)[C@H](Cc1c[nH]c2ccccc12)NC(=O)[C@H](CCCNC(=N)N)NC(=O)[C@H](CCCNC(=N)N)NC(=O)[C@H](Cc1c[nH]c2ccccc12)NC(=O)[C@H](CCCCN)NC(C)=O)C(C)C)C(N)=O [Pac-525, Ac-KWRRWVRW1-NH2] (Ac-KWRRWVRWI-NH2) | – | – | – | – | – | – | – | – | – | – | – | – | – | reduced hemolytic activity | improved activity against both Gram-positive and Gram-negative bacteria |
